Experimental data as given in ChEMBL document CHEMBL1128014, “Synthesis and biological activity of a potent antiplatelet 7-aminofurochromone” (Bioorg Med Chem Lett, 1994).
pIC50: −log10 of the molar value.

What was measured:
Homo sapiens [1] = species: Homo sapiens; assay: Compound was tested for its ability to inhibit ADP-induced human platelet aggregation; assay type: functional
Homo sapiens [2] = species: Homo sapiens; assay: Potency to inhibit ADP-induced human platelet aggregation was determined relative to compound 1(5-Methyl-3-morpholin-4-yl-6-(2-naphthalene-1-one); assay type: functional
Canis familiaris [3] = assay: Effect on Cyclical Flow Reductions induced by intracoronary platelet aggregation in stenosed canine coronary arteries at an iv dose of 10 ug/kg plus a constant infusion of 1 ug/kg/min in canine model; assay type: functional, Canis lupus familiaris
Canis familiaris [4] = assay: Effect on Cyclical Flow Reductions induced by intracoronary platelet aggregation in stenosed canine coronary arteries at an iv dose of 100 ug/kg plus a constant infusion of 10 ug/kg/min in canine model; assay type: functional, Canis lupus familiaris
Canis familiaris [5] = assay: Effect on Cyclical Flow Reductions induced by intracoronary platelet aggregation in stenosed canine coronary arteries at an iv dose of 10 ug/kg/60 min in a canine model; assay type: functional, Canis lupus familiaris
Canis familiaris [6] = assay: Effect on Cyclical Flow Reductions induced by intracoronary platelet aggregation in stenosed canine coronary arteries at an iv dose of 30 ug/kg plus a constant infusion of 3 ug/kg/min in canine model; assay type: functional, Canis lupus familiaris
Canis familiaris [7] = assay: Effect on Cyclical Flow Reductions induced by intracoronary platelet aggregation in stenosed canine coronary arteries at an iv dose of 3 ug/kg/60 min in canine model; assay type: functional, Canis lupus familiaris
Canis familiaris [8] = assay: Time interval between end of drug treatment and restoration of CFR pattern of blood flow at an iv dose of 10 ug/kg plus a constant infusion of 1 ug/kg/min in canine model; assay type: functional, Canis lupus familiaris
Canis familiaris [9] = assay: Time interval between end of drug treatment and restoration of CFR pattern of blood flow at an iv dose of 100 ug/kg plus a constant infusion of 10 ug/kg/min in canine model; assay type: functional, Canis lupus familiaris
Canis familiaris [10] = assay: Time interval between end of drug treatment and restoration of CFR pattern of blood flow at an iv dose of 10 ug/kg/60 min in a canine model; assay type: functional, Canis lupus familiaris
Canis familiaris [11] = assay: Effect on mean arterial pressure was determined at an iv dose of 10 ug/kg plus a constant infusion of 1 ug/kg/min in canine model; assay type: functional, Canis lupus familiaris, Artery
Canis familiaris [12] = assay: Effect on mean arterial pressure was determined at an iv dose of 100 ug/kg plus a constant infusion of 10 ug/kg/min in canine model; assay type: functional, Canis lupus familiaris, Artery
Canis familiaris [13] = assay: Effect on mean arterial pressure was determined at an iv dose of 10 ug/kg/60 min in a canine model; assay type: functional, Canis lupus familiaris, Artery
Canis familiaris [14] = assay: Effect on mean arterial pressure was determined at an iv dose of 30 ug/kg plus a constant infusion of 3 ug/kg/min in canine model; assay type: functional, Canis lupus familiaris, Artery
Canis familiaris [15] = assay: Effect on mean arterial pressure was determined at an iv dose of 3 ug/kg/60 min in canine model; assay type: functional, Canis lupus familiaris, Artery
Canis familiaris [16] = assay: Effect on heart rate was determined at an iv dose of 100 ug/kg plus a constant infusion of 10 ug/kg/min in a canine model; assay type: functional, Canis lupus familiaris
Canis familiaris [17] = assay: Effect on heart rate was determined at an iv dose of 10 ug/kg/60 min in a canine model; assay type: functional, Canis lupus familiaris
Canis familiaris [18] = assay: Effect on heart rate was determined at an iv dose of 30 ug/kg plus a constant infusion of 3 ug/kg/min in a canine model; assay type: functional, Canis lupus familiaris
Canis familiaris [19] = assay: Effect on heart rate was determined at an iv dose of 3 ug/kg/60 min in canine model; assay type: functional, Canis lupus familiaris
Canis familiaris [20] = assay: Time interval between end of drug treatment and restoration of CFR pattern of blood flow at an iv dose of 30 ug/kg plus a constant infusion of 3 ug/kg/min in canine model; assay type: functional, Canis lupus familiaris
Canis familiaris [21] = assay: Time interval between end of drug treatment and restoration of CFR pattern of blood flow at an iv dose of 3 ug/kg/60 min in canine model; assay type: functional, Canis lupus familiaris
Canis familiaris [22] = assay: Time interval between start of drug treatment and first change in CFR pattern of blood flow at an iv dose of 100 ug/kg plus a constant infusion of 10 ug/kg/min; assay type: functional, Canis lupus familiaris
Canis familiaris [23] = assay: Time interval between start of drug treatment and first change in CFR pattern of blood flow at an iv dose of 10 ug/kg/60 min in a canine model; assay type: functional, Canis lupus familiaris
Canis familiaris [24] = assay: Time interval between start of drug treatment and first change in CFR pattern of blood flow at an iv dose of 30 ug/kg plus a constant infusion of 3 ug/kg/min; assay type: functional, Canis lupus familiaris
Homo sapiens [25] = species: Homo sapiens; assay: Effect on PGI2-stimulated cAMP in washed human platelets at a concentration of 0.3 uM +1 ng/mL of PGI2; pmol/5E8 platelets; assay type: functional
Homo sapiens [26] = species: Homo sapiens; assay: Effect on cAMP levels in washed platelets at a concentration of 0.1 uM; pmol/5E8 platelets; assay type: functional
Homo sapiens [27] = species: Homo sapiens; assay: Effect on cAMP levels in washed platelets at a concentration of 0.3 uM; pmol/5E8 platelets; assay type: functional
Homo sapiens [28] = species: Homo sapiens; assay: Effect on aggregation of thrombin-stimulated washed human platelets at a concentration of 0.1 uM; assay type: functional
Homo sapiens [29] = species: Homo sapiens; assay: Effect on aggregation of thrombin-stimulated washed human platelets at a concentration of 0.3 uM; assay type: functional
Homo sapiens [30] = species: Homo sapiens; assay: Effect on aggregation of thrombin-stimulated washed human platelets at a concentration of 1 uM; assay type: functional
Canis familiaris [31] = assay: Effect on heart rate was determined at an iv dose of 10 ug/kg plus a constant infusion of 1 ug/kg/min in a canine model; assay type: functional, Canis lupus familiaris

Structure (SMILES): Cc1c2c(cc3c(=O)cc(N4CCOCC4)oc13)CC(CN1CCCCC1)O2 (stereo not given)
- pIC50 (Homo sapiens [1]): 5.21
- Relative potency (Homo sapiens [2]): 0.5

Structure (SMILES): Cc1c2oc(CN3CCCC3)cc2cc2c(=O)cc(N3CCOCC3)oc12
- pIC50 (Homo sapiens [1]): 4.81
- Relative potency (Homo sapiens [2]): 0.5

Structure (SMILES): Cc1c2oc(CN3CCSCC3)cc2cc2c(=O)cc(N3CCOCC3)oc12
- CFR rating (Canis familiaris [3]): 1
- CFR rating (Canis familiaris [4]): 3
- CFR rating (Canis familiaris [5]): 3
- CFR rating (Canis familiaris [6]): 2
- CFR rating (Canis familiaris [7]): 3
- Offset time (Canis familiaris [8]): 3 min
- Offset time (Canis familiaris [9]): >60 min
- Offset time (Canis familiaris [10]): 36 min
- Mean arterial blood pressure (Canis familiaris [11]): 99%
- Mean arterial blood pressure (Canis familiaris [12]): 74%
- Mean arterial blood pressure (Canis familiaris [13]): 86%
- Mean arterial blood pressure (Canis familiaris [14]): 88%
- Mean arterial blood pressure (Canis familiaris [15]): 93%
- Heart rate (Canis familiaris [16]): 116%
- Heart rate (Canis familiaris [17]): 116%
- Heart rate (Canis familiaris [18]): 112%
- Heart rate (Canis familiaris [19]): 104%
- Offset time (Canis familiaris [20]): 34 min
- Offset time (Canis familiaris [21]): 27 min
- Onset time (Canis familiaris [22]): 1 min
- Onset time (Canis familiaris [23]): 8 min
- Onset time (Canis familiaris [24]): 1 min
- pIC50 (Homo sapiens [1]): 6.46
- Relative potency (Homo sapiens [2]): 4.5
- Activity (Homo sapiens [25]): 163.1
- Activity (Homo sapiens [26]): 13.2
- Activity (Homo sapiens [27]): 36.1
- Activity (Homo sapiens [28]): 25.7
- Aggregation (Homo sapiens [28]): 14%
- Aggregation (Homo sapiens [29]): 0%
- Activity (Homo sapiens [30]): 25.7
- Aggregation (Homo sapiens [30]): 0%
- Heart rate (Canis familiaris [31]): 106%

Structure (SMILES): Cc1c2c(cc3c(=O)cc(N4CCOCC4)oc13)CC(CN1CCN(C)CC1)O2 (stereo not given)
- pIC50 (Homo sapiens [1]): 5.25
- Relative potency (Homo sapiens [2]): 0.5

Structure (SMILES): Cc1c(OCCN2CCN(C)CC2)ccc2c(=O)cc(N3CCOCC3)oc12
- pIC50 (Homo sapiens [1]): 5.07
- Relative potency (Homo sapiens [2]): 1

Structure (SMILES): Cc1c2c(cc3c(=O)cc(N4CCOCC4)oc13)CC(CN1CCSCC1)O2 (stereo not given)
- pIC50 (Homo sapiens [1]): 5.44
- Relative potency (Homo sapiens [2]): 2.4

Structure (SMILES): Cc1c2oc(CN3CCN(C)CC3)cc2cc2c(=O)cc(N3CCOCC3)oc12
- pIC50 (Homo sapiens [1]): 5.04
- Relative potency (Homo sapiens [2]): 0.9
